Data taken from the supplement of paper PMC10307832.

Key:
Assay in all cases: relative viability (nuclei count vs DMSO), 5 days (fraction); higher = more cells survive
[1] = compound: C1CNCCC1C2=CC(=NN2)C3=CC=NC=C3 + CCNC(=O)c1noc(-c2cc(C(C)C)c(O)cc2O)c1-c1ccc(CN2CCOCC2)cc1 [Luminespib] (partner 0.01 µM)
In short: (§1)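 After 5 days of treatment, lung cancer cells in 1536-well plates were fixed and stained in a single step (final 0.05% Triton X-100, 1% formaldehyde, 1 ug/ml Hoechst) and their nuclei counted on 4× images. Treatment had been applied by pin tool the day after seeding as one drug alone or as a fixed anchor-drug dose with five library-drug doses (not always all listed) in √10 steps. Relative viability is the nuclei count of treated wells divided by that of vehicle wells, and values are medians of duplicate plates.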

[2] = compound: C1CNCCC1C2=CC(=NN2)C3=CC=NC=C3 + CS(=O)(=O)CCNCc1ccc(-c2ccc3ncnc(Nc4ccc(OCc5cccc(F)c5)c(Cl)c4)c3c2)o1 [Lapatinib] (partner 2 µM)
In short: as §1

[3] = compound: C1CNCCC1C2=CC(=NN2)C3=CC=NC=C3 + NC(=O)Nc1cc(-c2cccc(F)c2)sc1C(=O)N[C@H]1CCCNC1 [AZD7762] (partner 0.2 µM)
In short: as §1

Tanzisertib + Pictilisib = compound: O[C@H]1CC[C@H](Nc2ncc3nc(Nc4c(F)cc(F)cc4F)n([C@H]4CCOC4)c3n2)CC1 [Tanzisertib] + CS(=O)(=O)N1CCN(Cc2cc3nc(-c4cccc5[nH]ncc45)nc(N4CCOCC4)c3s2)CC1 [Pictilisib] (partner 1 µM)
In short: as §1

With NCI-H838 the relative viability ([1]; first compound 0.08 µM) was 0.315, the relative viability ([1]; first compound 0.8 µM) was 0.355 and the relative viability ([1]; first compound 2.53 µM) was 0.281. It also gave a relative viability ([1]; first compound 8 µM) of 0.302, a relative viability ([2]; first compound 0.08 µM) of 0.906 and a relative viability ([2]; first compound 0.8 µM) of 0.97. The relative viability ([2]; first compound 2.53 µM) was 1.07, the relative viability ([2]; first compound 8 µM) was 0.895 and the relative viability ([3]; first compound 0.08 µM) was 0.928. The relative viability ([3]; first compound 0.8 µM) was 0.888, the relative viability ([3]; first compound 2.53 µM) was 0.989 and the relative viability ([3]; first compound 8 µM) was 0.934. The relative viability (Tanzisertib + Pictilisib; first compound 0.08 µM) was 0.564, the relative viability (Tanzisertib + Pictilisib; first compound 0.253 µM) was 0.424 and the relative viability (Tanzisertib + Pictilisib; first compound 0.8 µM) was 0.493. It also gave a relative viability (Tanzisertib + Pictilisib; first compound 2.53 µM) of 0.536 and a relative viability (Tanzisertib + Pictilisib; first compound 8 µM) of 0.493.
Work on LK-2 yielded a relative viability ([1]; first compound 0.08 µM) of 0.176, a relative viability ([1]; first compound 0.8 µM) of 0.19 and a relative viability ([1]; first compound 2.53 µM) of 0.214. For the same cell line, the relative viability ([1]; first compound 8 µM) was 0.226, the relative viability ([2]; first compound 0.08 µM) was 0.768 and the relative viability ([2]; first compound 0.8 µM) was 0.791. It also gave a relative viability ([2]; first compound 2.53 µM) of 1.06, a relative viability ([2]; first compound 8 µM) of 0.83 and a relative viability ([3]; first compound 0.8 µM) of 0.29. For the same cell line, the relative viability ([3]; first compound 2.53 µM) was 0.532, the relative viability ([3]; first compound 8 µM) was 0.522 and the relative viability (Tanzisertib + Pictilisib; first compound 0.08 µM) was 0.515. For the same cell line, the relative viability (Tanzisertib + Pictilisib; first compound 0.253 µM) was 0.578, the relative viability (Tanzisertib + Pictilisib; first compound 0.8 µM) was 0.477 and the relative viability (Tanzisertib + Pictilisib; first compound 2.53 µM) was 0.463. For the same cell line, the relative viability (Tanzisertib + Pictilisib; first compound 8 µM) was 0.435.
In the case of NCI-H322M, the relative viability ([1]; first compound 0.08 µM) is reported as 0.677, the relative viability ([1]; first compound 0.8 µM) is reported as 0.944 and the relative viability ([1]; first compound 2.53 µM) is reported as 0.904. For the same cell line, the relative viability ([1]; first compound 8 µM) was 1.04, the relative viability ([2]; first compound 0.08 µM) was 0.545 and the relative viability ([2]; first compound 0.8 µM) was 0.555. For the same cell line, the relative viability ([2]; first compound 2.53 µM) was 0.592, the relative viability ([2]; first compound 8 µM) was 0.524 and the relative viability ([3]; first compound 0.08 µM) was 0.582. The relative viability ([3]; first compound 0.8 µM) was 0.597, the relative viability ([3]; first compound 2.53 µM) was 0.627 and the relative viability ([3]; first compound 8 µM) was 0.622. For the same cell line, the relative viability (Tanzisertib + Pictilisib; first compound 0.08 µM) was 0.506, the relative viability (Tanzisertib + Pictilisib; first compound 0.253 µM) was 0.648 and the relative viability (Tanzisertib + Pictilisib; first compound 0.8 µM) was 0.591. For the same cell line, the relative viability (Tanzisertib + Pictilisib; first compound 2.53 µM) was 0.494 and the relative viability (Tanzisertib + Pictilisib; first compound 8 µM) was 0.459.
Cell Line NCI-H1395 has a relative viability ([1]; first compound 0.08 µM) of 0.771, a relative viability ([1]; first compound 0.8 µM) of 0.692 and a relative viability ([1]; first compound 2.53 µM) of 0.563. The relative viability ([1]; first compound 8 µM) was 0.764, the relative viability ([2]; first compound 0.08 µM) was 0.886 and the relative viability ([2]; first compound 0.8 µM) was 0.876. The relative viability ([2]; first compound 2.53 µM) was 0.987, the relative viability ([2]; first compound 8 µM) was 1.18 and the relative viability ([3]; first compound 0.08 µM) was 0.389. The relative viability ([3]; first compound 0.8 µM) was 0.437, the relative viability ([3]; first compound 2.53 µM) was 0.405 and the relative viability ([3]; first compound 8 µM) was 0.398. The relative viability (Tanzisertib + Pictilisib; first compound 0.08 µM) was 0.592, the relative viability (Tanzisertib + Pictilisib; first compound 0.253 µM) was 0.735 and the relative viability (Tanzisertib + Pictilisib; first compound 0.8 µM) was 0.568. For the same cell line, the relative viability (Tanzisertib + Pictilisib; first compound 2.53 µM) was 0.589 and the relative viability (Tanzisertib + Pictilisib; first compound 8 µM) was 0.533.
